# Assay results reported in patent US20180117110A1, “METHOD OF TREATING CANCER” (THE WALTER AND ELIZA HALL INSTITUTE OF MEDICAL RESEARCH, priority 2014, published 2018).
# Assays:
# [1] = test system: advanced solid tumours and lymphoma; conditions: intravenous administration, Phase I; cited from earlier work
# [2] = test system: human AML patient samples; experiment: Response of human AML patient samples to Birinapant in vitro; format: cell-based
# [3] = test system: Bone Marrow Derived Macrophages (BMDM); experiment: TNFα production by ELISA of supernatants of BMDM treated with SMAC mimetic ± p38 inhibitors (kinase inhibitors screen); format: cell-based, mouse; conditions: 500 nM SMAC mimetic ± 1 μM LY2228820 (FIG. 1B)
# Experimental: FIG. 1: p38 inhibitors increase TNFα production and cell death induced by SMAC mimetics. A. Bone Marrow Derived Macrophages (BMDM) were pretreated ±1 μM of the indicated p38 inhibitors for 30 min then treated with 500 nM of SMAC mimetic Compound A (CompA) for 24 h. TNFα production was measured by ELISA of supernatants. B. BMDM were pretreated 500 nM of SMAC mimetic Compound A, GT13072 or birinapant ±1 μM of LY2228820. TNFα production was measured by ELISA of supernatants. N=3 biological repeats and error bars are SEM. C. BMDM were pretreated ± the indicated dose of MK2 inhibitor PF-3644022 and the p38 inhibitor LY2228820, VX-702, TAK-715 or VX-745 for 30 min then treated with 500 nM of SMAC mimetic Compound A. Cell viability was measured after 24 h of treatment using CellTiter-Glo® (CTG) reagent. N=3 biological repeats and error bars are SEM. BMDMs from C56/B16, p38α^LysMCre or Mk2^−/− were cultured for 6 days in DMEM+10% FBS (v/v)+20% L929 mouse fibroblasts (a source of macrophage colony stimulating factor), plated and assayed the following day. BMDMs cells were seeded and assayed in the presence of L929 conditioned medium. AML cells were cultured in IMDM +10% FBS (v/v)+2.5 ng/ml of IL-3. […] After treatment with SMAC mimetic with or without kinases inhibitors cell viability was measured by staining with propidium iodide (2 μg/mL) or by using CellTiter-Glo® (Promega). […]
# C57BL6 mice = experiment: Tolerability of SMAC mimetic plus p38 inhibitor in non tumour-bearing mice; format: in vivo; conditions: 5 mg/kg GT13072 + 15 mg/kg LY2228820 i.p. (FIG. 7C)
# Experimental: FIG. 7: Mice tolerate administration of birinapant plus p38 inhibitor. A. Mononuclear cells isolated from healthy donor by Ficoll sedimentation were treated for 48 h with indicated drugs. CD34^+ cell death was measured by staining with PI and flow cytometry. For each donor sample, graphs show mean of at least n=2 technical replicates across n=2-5 independent experiments. B and C. C57BL/6 mice were intra-peritoneally injected with vehicle (captisol 6%) or birinapant (B) or GT13072 (C) or LY2228820 or combination of LY2228820 and SM at indicated concentration. Mice received 8 injections twice a week over 4 weeks. Mice were euthanised 2 weeks after the treatment stopped. Graphs show organs, body weights and blood cell populations with 6 mice/group (B), 4 mice/group (C). Error bars are SEM.
# To assess the safety of SMAC mimetic plus p38 inhibitor C57BL6 mice were injected by intra-peritoneal route twice a week for 4 weeks with either vehicle (6% Captisol) or 15 mg/kg of LY222820 or 5 mg/kg birinapant ±15 mg/kg LY2228820, or 10 mg/kg birinapant±15 mg/kg LY2228820. Another cohort received either vehicle or 5 mg/kg of GT13072, or 15 mg/kg of LY222820 or combination.
# 200 μL of blood was collected from the retro-orbital plexus into tubes containing potassium ethylenediaminetetraacetic acid (Sarstedt) and analyzed in an Advia 2120 automated hematologic analyzer (Bayer).
# [4] = test system: Bone Marrow Derived Macrophages (BMDM); experiment: BMDM cell viability (CellTiter-Glo) after SMAC mimetic Compound A ± p38 or MK2 inhibitor; format: cell-based, mouse; conditions: inhibitor 30 min then 500 nM Compound A, 24 h, dose dependent (FIG. 1C)
# Experimental: FIG. 1: p38 inhibitors increase TNFα production and cell death induced by SMAC mimetics. A. Bone Marrow Derived Macrophages (BMDM) were pretreated ±1 μM of the indicated p38 inhibitors for 30 min then treated with 500 nM of SMAC mimetic Compound A (CompA) for 24 h. TNFα production was measured by ELISA of supernatants. B. BMDM were pretreated 500 nM of SMAC mimetic Compound A, GT13072 or birinapant ±1 μM of LY2228820. TNFα production was measured by ELISA of supernatants. N=3 biological repeats and error bars are SEM. C. BMDM were pretreated ± the indicated dose of MK2 inhibitor PF-3644022 and the p38 inhibitor LY2228820, VX-702, TAK-715 or VX-745 for 30 min then treated with 500 nM of SMAC mimetic Compound A. Cell viability was measured after 24 h of treatment using CellTiter-Glo® (CTG) reagent. N=3 biological repeats and error bars are SEM.
# BMDMs from C56/B16, p38α^LysMCre or Mk2^−/− were cultured for 6 days in DMEM+10% FBS (v/v)+20% L929 mouse fibroblasts (a source of macrophage colony stimulating factor), plated and assayed the following day. BMDMs cells were seeded and assayed in the presence of L929 conditioned medium. AML cells were cultured in IMDM +10% FBS (v/v)+2.5 ng/ml of IL-3. NCI-H929 cells were cultured in RPMI+10% FBS (v/v). Cell suspension from breast ER+ patient derived tumours was cultured in mammosphere media. After treatment with SMAC mimetic with or without kinases inhibitors cell viability was measured by staining with propidium iodide (2 μg/mL) or by using CellTiter-Glo® (Promega).
# [5] = test system: low- and intermediate-1-risk Myelodysplastic syndromes; conditions: oral administration, Phase I/II; cited from earlier work
smiles,measurement,setting,value
CC[C@H](NC(=O)[C@H](C)NC)C(=O)N1C[C@@H](O)C[C@H]1Cc1c(-c2[nH]c3cc(F)ccc3c2C[C@@H]2C[C@H](O)CN2C(=O)[C@H](CC)NC(=O)[C@H](C)NC)[nH]c2cc(F)ccc12 [Birinapant],anti-tumour activity in patients,[1],evidence of anti-tumour activity
same,tolerability in patients,[1],well tolerated with no dose-limiting toxicities
same,response of human AML patient samples to single agent treatment,[2],some human AML patient samples did not respond
CC(C)(C)Cn1c(N)nc2ccc(-c3[nH]c(C(C)(C)C)nc3-c3ccc(F)cc3)nc21 [LY2228820],"TNF production of three different smac-mimetics (CompA, GT13072 and birinapant)",[3],increased TNF production
same,effect of LY2228820 on populations of white blood cells (ADVIA analysis),C57BL6 mice,nor affect the populations of white blood cells
same,effect of LY2228820 on the splenomegaly induced by GT13072,C57BL6 mice,did not even exacerbate the splenomegaly
same,cell death induced by SMAC mimetics,[4],dramatically increased cell death
Cc1ccc(-c2ccc3c(ccc4sc5c(c43)NC[C@@H](C)NC5=O)n2)cn1 [PF-3644022],cell death induced by SMAC mimetics,[4],dramatically increased cell death
CCc1nc(-c2cccc(C)c2)c(-c2ccnc(NC(=O)c3ccccc3)c2)s1 [TAK-715],cell death induced by SMAC mimetics,[4],dramatically increased cell death
C[C@@H]1CN(Cc2ccc(F)cc2)[C@@H](C)CN1C(=O)c1cc2c(C(=O)C(=O)N(C)C)cn(C)c2cc1Cl [Talmapimod],complete remission,[5],only one patient achieved a complete remission
same,tolerability in patients,[5],well tolerated
NC(=O)c1ccc(N(C(N)=O)c2c(F)cccc2F)nc1-c1ccc(F)cc1F [VX-702],cell death induced by SMAC mimetics,[4],dramatically increased cell death
O=c1ncn2nc(Sc3ccc(F)cc3F)ccc2c1-c1c(Cl)cccc1Cl [VX-745],cell death induced by SMAC mimetics,[4],dramatically increased cell death
